{"source": "patent US7429564B2", "about": "“Oral insulin therapy” (Emisphere Technologies, Inc., priority 2002, dated 2008)", "experiment": "Example 5: 4-CNAB plasma pharmacokinetics, single oral doses, healthy male volunteers", "assay_type": "in vivo, human", "conditions": "for AUC(0-inf) / AUC(0-t) / Cmax / MRT inf / Vd/F / half-life / Tmax / MRT / MRT last: male, human, plasma; for AUC(0-inf) / AUC(0-t) / Cmax / MRT inf / Vd/F / half-life / Tmax / MRT: po; for MRT inf: read-out: 4-CNAB MRT(0-inf); for half-life: read-out: 4-CNAB t1/2 (converted); for MRT: read-out: 4-CNAB MRT(0-f); for MRT last: read-out: 4-CNAB MRT(0-t)", "method": "A single center, double-blind, randomized placebo-controlled study undertaken in healthy human subjects in order to assess the safety and tolerability of escalating single oral doses of 4-CNAB capsules and insulin/4-CNAB capsules.\nWithin each treatment period in each group, eight subjects were planned to receive active treatment and two subjects to receive placebo. In Group 1, there were four escalating single doses of 4-CNAB (400, 800, 1400 and 2000 mg) and each subject received either all four of these escalating doses or three escalating single doses and one dose of placebo. […] In Group 3 there were three escalating oral doses of Insulin/4-CNAB (100 Units/300 mg, 100 Units/450 mg and 150 Units/100 mg) and one SC dose of 150 Units of insulin. Each subject received either all four of these treatments or three of these treatments and one placebo treatment. For all groups, there was a washout period of at least 72 hours between treatment periods.\nThe concentration of 4-CNAB in plasma was determined using a combination of liquid chromatography and Mass spectrometry assay known as LC-MS/MS. The method involves protein precipitation followed by separation on liquid chromatography using a Hypersil BDS column and a mobile phase consisting of methanol and acetate buffer. The eluting peaks were quantified by MS/MS. The equipment used for the determination of 4-CNAB in plasma comprises of an Agilent 1100 modular HPLC system with a Micromass Quattro Micro MS/MS detector. HPLC and AR grade chemicals and reagents were used throughout the study.\nOn the basis of plasma concentrations of 4-CNAB and insulin, PK analysis was performed using non-compartmental PK methods as implemented in WinNonlin™ Professional version 3.2. The profiles for insulin and C-peptide corrected insulin were evaluated up to 6 hours as food was given 6 hours following insulin treatment. The following parameters were derived for 4-CNAB: Cmax, tmax, AUC(0-t), AUC(0-inf), AUC% Extrap, Kel, t1/2, CL/F, Vd/F, MRT(0-t), MRT(0-inf) and Frel. The following parameters were derived for insulin and C-peptide corrected insulin: Cmax, tmax, AUC(0-2), AUC(0-6), AUC(0-t) and concentrations (C^b) and corresponding time (t^b) immediately prior to intervention for hypoglycemia.", "key": {"[1]": {"conditions": "2000 mg, 4-CNAB alone 2000 mg oral"}, "[2]": {"conditions": "with insulin, 100 Units/300 mg oral"}, "[3]": {"conditions": "with insulin, 100 Units/450 mg oral"}, "[4]": {"conditions": "with insulin, 100 Units/600 mg oral"}, "[5]": {"conditions": "with insulin, 150 Units/100 mg oral"}, "[6]": {"conditions": "with insulin, 150 Units/200 mg oral"}}, "note": "Where two headings read alike, the source gives them in different places."}
{"smiles": "O=C(O)CCCNC(=O)c1ccc(Cl)cc1O", "note": "[4-CNAB, 4-[(4-chloro, 2-hydroxybenzoyl)amino]butanoic acid]", "values": [{"measurement": "AUC(0-inf)", "setting": "[1]", "value": "192000 ± 37100", "unit": "ng·h/mL"}, {"measurement": "AUC(0-t)", "setting": "[1]", "value": "204000 ± 103000", "unit": "ng·h/mL"}, {"measurement": "Cmax", "setting": "[1]", "value": "135000 ± 86600", "unit": "ng/mL"}, {"measurement": "MRT inf", "setting": "[1]", "value": "7.45 ± 2.36", "unit": "h"}, {"measurement": "Vd/F", "setting": "2000 mg, 4-CNAB alone 2000 mg oral, read-out: 4-CNAB Vd/F", "value": "245 ± 131", "unit": "L"}, {"measurement": "half-life", "setting": "[1]", "value": "15.3 ± 6.9", "unit": "h"}, {"measurement": "Tmax", "setting": "2000 mg, 4-CNAB alone 2000 mg oral, read-out: 4-CNAB tmax, median (range)", "value": 0.75, "unit": "h"}, {"measurement": "AUC(0-inf)", "setting": "[2]", "value": "9240 ± 5940", "unit": "ng·h/mL"}, {"measurement": "AUC(0-t)", "setting": "[2]", "value": "8740 ± 5520", "unit": "ng·h/mL"}, {"measurement": "Cmax", "setting": "[2]", "value": "8900 ± 6350", "unit": "ng/mL"}, {"measurement": "MRT", "setting": "[2]", "value": "1.51 ± 0.16", "unit": "h"}, {"measurement": "MRT inf", "setting": "[2]", "value": "2.43 ± 0.82", "unit": "h"}, {"measurement": "Vd/F", "setting": "with insulin, 100 Units/300 mg oral, read-out: 4-CNAB Vz/F", "value": "324 ± 239", "unit": "L"}, {"measurement": "half-life", "setting": "[2]", "value": "5.3 ± 3.3", "unit": "h"}, {"measurement": "Tmax", "setting": "with insulin, 100 Units/300 mg oral, read-out: 4-CNAB tmax, median", "value": 0.5, "unit": "h"}, {"measurement": "AUC(0-inf)", "setting": "[3]", "value": "26800 ± 4560", "unit": "ng·h/mL"}, {"measurement": "AUC(0-t)", "setting": "[3]", "value": "26000 ± 4410", "unit": "ng·h/mL"}, {"measurement": "Cmax", "setting": "[3]", "value": "23200 ± 7930", "unit": "ng/mL"}, {"measurement": "MRT", "setting": "[3]", "value": "1.79 ± 0.5", "unit": "h"}, {"measurement": "MRT inf", "setting": "[3]", "value": "2.3 ± 0.46", "unit": "h"}, {"measurement": "Vd/F", "setting": "with insulin, 100 Units/450 mg oral, read-out: 4-CNAB Vz/F", "value": "101 ± 35", "unit": "L"}, {"measurement": "half-life", "setting": "[3]", "value": "4.1 ± 1.2", "unit": "h"}, {"measurement": "Tmax", "setting": "with insulin, 100 Units/450 mg oral, read-out: 4-CNAB tmax, median", "value": 0.5, "unit": "h"}, {"measurement": "AUC(0-inf)", "setting": "[4]", "value": "37600 ± 5430", "unit": "ng·h/mL"}, {"measurement": "AUC(0-t)", "setting": "[4]", "value": "36600 ± 5760", "unit": "ng·h/mL"}, {"measurement": "Cmax", "setting": "[4]", "value": "35800 ± 12300", "unit": "ng/mL"}, {"measurement": "MRT", "setting": "[4]", "value": "1.45 ± 0.17", "unit": "h"}, {"measurement": "MRT inf", "setting": "[4]", "value": "1.9 ± 0.58", "unit": "h"}, {"measurement": "Vd/F", "setting": "with insulin, 100 Units/600 mg oral, read-out: 4-CNAB Vz/F", "value": "96 ± 35", "unit": "L"}, {"measurement": "half-life", "setting": "[4]", "value": "4.1 ± 1.2", "unit": "h"}, {"measurement": "Tmax", "setting": "with insulin, 100 Units/600 mg oral, read-out: 4-CNAB tmax, median", "value": 0.5, "unit": "h"}, {"measurement": "AUC(0-inf)", "setting": "[5]", "value": "4920 ± 1100", "unit": "ng·h/mL"}, {"measurement": "AUC(0-t)", "setting": "[5]", "value": "4680 ± 1080", "unit": "ng·h/mL"}, {"measurement": "Cmax", "setting": "[5]", "value": "6200 ± 3600", "unit": "ng/mL"}, {"measurement": "MRT", "setting": "[5]", "value": "1.42 ± 0.56", "unit": "h"}, {"measurement": "MRT inf", "setting": "[5]", "value": "2.39 ± 1.39", "unit": "h"}, {"measurement": "Vd/F", "setting": "with insulin, 150 Units/100 mg oral, read-out: 4-CNAB Vz/F", "value": "148 ± 102", "unit": "L"}, {"measurement": "half-life", "setting": "[5]", "value": "4.8 ± 3.4", "unit": "h"}, {"measurement": "Tmax", "setting": "with insulin, 150 Units/100 mg oral, read-out: 4-CNAB tmax, median", "value": 0.5, "unit": "h"}, {"measurement": "AUC(0-inf)", "setting": "[6]", "value": "10300 ± 2080", "unit": "ng·h/mL"}, {"measurement": "AUC(0-t)", "setting": "[6]", "value": "10000 ± 1890", "unit": "ng·h/mL"}, {"measurement": "Cmax", "setting": "[6]", "value": "10100 ± 5090", "unit": "ng/mL"}, {"measurement": "MRT", "setting": "[6]", "value": "1.59 ± 0.23", "unit": "h"}, {"measurement": "MRT inf", "setting": "[6]", "value": "1.97 ± 0.39", "unit": "h"}, {"measurement": "Vd/F", "setting": "with insulin, 150 Units/200 mg oral, read-out: 4-CNAB Vz/F", "value": "89 ± 35", "unit": "L"}, {"measurement": "half-life", "setting": "[6]", "value": "3.2 ± 1.4", "unit": "h"}, {"measurement": "Tmax", "setting": "with insulin, 150 Units/200 mg oral, read-out: 4-CNAB tmax, median", "value": 0.5, "unit": "h"}, {"measurement": "MRT last", "setting": "4-CNAB alone 400 mg oral", "value": "1.6 ± 0.23", "unit": "h"}, {"measurement": "MRT last", "setting": "4-CNAB alone 800 mg oral", "value": "1.75 ± 0.22", "unit": "h"}, {"measurement": "MRT last", "setting": "4-CNAB alone 1400 mg oral", "value": "1.6 ± 0.2", "unit": "h"}, {"measurement": "MRT last", "setting": "4-CNAB alone 2000 mg oral", "value": "1.73 ± 0.31", "unit": "h"}, {"measurement": "4-CNAB Cl/F", "setting": "[2]", "value": "834 ± 527", "unit": "mL/min"}, {"measurement": "4-CNAB Kel", "setting": "[2]", "value": "0.19 ± 0.12", "unit": "h⁻¹"}, {"measurement": "4-CNAB Cl/F", "setting": "[3]", "value": "287 ± 49", "unit": "mL/min"}, {"measurement": "4-CNAB Kel", "setting": "[3]", "value": "0.185 ± 0.06", "unit": "h⁻¹"}, {"measurement": "4-CNAB Cl/F", "setting": "[4]", "value": "271 ± 38", "unit": "mL/min"}, {"measurement": "4-CNAB Kel", "setting": "[4]", "value": "0.19 ± 0.06", "unit": "h⁻¹"}, {"measurement": "4-CNAB Cl/F", "setting": "[5]", "value": "352 ± 68", "unit": "mL/min"}, {"measurement": "4-CNAB Kel", "setting": "[5]", "value": "0.22 ± 0.14", "unit": "h⁻¹"}, {"measurement": "4-CNAB Cl/F", "setting": "[6]", "value": "338 ± 75", "unit": "mL/min"}, {"measurement": "4-CNAB Kel", "setting": "[6]", "value": "0.25 ± 0.09", "unit": "h⁻¹"}]}
